For series [1], the target named is guinea pig DP2 receptor (Cavia porcellus, UniProt H0W1T0). As to the kind of experiment: In vitro DP2/CRTH2 radioligand ([3H]PGD2) membrane binding assay. The procedure: Example 15: In Vitro DP2/CRTH2 Binding Assay
The ability of Compound 1 to bind to the human DP2 receptor was assessed via a radioligand binding assay using [^3H]PGD2. HEK293 cells stably expressing recombinant human DP2 are resuspended in 10 mM Hepes, 7.4 containing 1 mM DTT, lysed and centrifuged at 75,000×g to pellet the membranes. The membranes are resuspended in 10 mM Hepes, 7.4 containing 1 mM DTT and 10% glycerol to approximately 5 mg protein/ml. Membranes (2-10 μg protein/well) are incubated in 96-well plates with 1 nM [^3H]PGD2 and Compound 1 in Assay Buffer (50 mM Hepes, 10 mM MnCl2, 1 mM EDTA, plus or minus 0.2% human serum albumin, pH 7.4) for 60 minutes at room temperature. The reactions are terminated by rapid filtration through Whatman GF/C glass fibre filter plates. The filter plates were pre-soaked in 0.33% polythylenimine for 30 minutes at room temperature then washed in Wash Buffer (50 mM Hepes, 0.5 M NaCl pH 7.4) prior to harvesting. After harvesting, the filter plates are washed 3 times with 1 ml cold Wash Buffer then dried. Scintillant is then added to the plates and the radioactivity retained on the filters is determined on a Packard TopCount (Perkin Elmer). Specific binding is determined as total radioactive binding minus non-specific binding in the presence of 10 μM PGD2. IC50s were determined using GraphPad prism analysis of drug titration curves. […]

Series [2] in a line: Plasma exposure in satellite group of mouse allergic rhinitis model. The format is in vivo. Conditions: Compound 2 10 mg/kg PO. The procedure: Compound 2 was evaluated in a mouse model of ovalbumin (OVA)-induced allergic rhinitis in which nasal ovalbumin challenges to OVA-primed mice elicits an increase in sneezing and nasal rubs (Methods were adapted from those detailed in Nakaya, M., et al. 2006, Laboratory Investigation, 86:917-926). OVA-primed mice received an intranasal challenge of OVA daily for 5 consecutive days. The number of sneezes and nasal rubs were counted over an 8 minute recording session on days 1, 3 and 5 immediately following OVA challenge. OVA caused a significant increase in both sneezing behavior and nasal rubs when compared to intranasal phosphate buffered saline (PBS) challenge. […] The plasma exposure for Compound 1 measured in a satellite group was 1360 nM, 460 nM, 210 nM and 90 nM for time points 1, 2, 4, and 6 hr post-dose, respectively.

Series [3] addresses CYP3A4 (Homo sapiens (Human), UniProt P08684). Conditions: human hepatocytes, 10 μM.
The nature of series [4]: Gravimetric vapour sorption (GVS). The format is physicochemical. Conditions: 25° C. The procedure: Example 5: Gravimetric Vapour Sorption (GVS)
Sorption isotherms were obtained using a SMS DVS Intrinsic moisture sorption analyzer, controlled by SMS Analysis Suite software. The sample temperature was maintained at 25° C. by the instrument controls. The humidity was controlled by mixing streams of dry and wet nitrogen, with a total flow rate of 200 ml·min-1. The relative humidity was measured by a calibrated Rotronic probe (dynamic range of 1.0-100% RH), located near the sample. The weight change, (mass relaxation) of the sample as a function of % RH was constantly monitored by the microbalance (accuracy ±0.005 mg). Typically 5-20 mg of sample was placed in a tared mesh stainless steel basket under ambient conditions. The sample was loaded and unloaded at 40% RH and 25° C. (typical room conditions). A moisture sorption isotherm was performed as outlined below (2 scans giving 1 complete cycle). The standard isotherm was performed at 25° C. at 10% RH intervals over a 0.5-90% RH range

A short description of series [5]: Capsule formulation pharmacokinetics in male Beagle dogs. The format is in vivo. Conditions: dog, fasted; for half-life: read-out: t1/2 24 hr (converted). The protocol:
In a separate study, male Beagle dogs were dosed with the capsule formulations as described herein.

Series [6] deals with smoke-induced pulmonary inflammation. As to the kind of experiment: Mouse smoke model of chronic obstructive pulmonary disease. The format is in vivo. Conditions: 10 and 50 mg/kg PO daily. The protocol: Example 21: Mouse Smoke Model of Chronic Obstructive Pulmonary Disease
A mouse model of acute cigarette smoke exposure was used to determine the effects of Compound 1 on smoke-induced pulmonary inflammation.
BALB/c mice were exposed to the smoke of 7 unfiltered cigarettes per day via whole-body exposure on days 0, 1, and 2 for a total of 1.75 hours per day. […] The plasma concentrations for Compound 1 measured at trough were 85 and 588 nM at 10 mg/kg and 50 mg/kg, respectively.

Series [7] is described as follows: Phase I single ascending dose study, safety and tolerability. The format is in vivo, human. Conditions: humans, capsule, 5 to 500 mg single doses. From the text: To assess: (1) the safety and tolerability of single and multiple doses of Compound 2 following oral administration; and (2) the pharmacokinetics (PK) of Compound 2 after single and multiple doses; and (3) the effects of the pharmacodynamic (PD) responses in healthy subjects to Compound 2 as measured by a PGD2-induced eosinophil shape change assay (ESC).
The Single Ascending Dose (SAD) study will include 6 cohorts with 8 subjects each, 6 receiving the active treatment and 2 receiving the placebo. The SAD study will explore doses of 5, 15, 50, 150, 300 and 500 mg/day. Compound 2 (Pattern 1) is administered as API in a Capsule, prepared on site at the clinical pharmacy (see Example 10). Safety monitoring will include: a “how do you feel” (HDYF) question, adverse events reporting, physical examinations, vital signs, ECG's, and a biological assessment (clinical chemistry, hematology and urinalysis). The decision to escalate to the next dose level will be based on the results of medical monitoring, and a blinded interim analysis of pharmacokinetic parameters (AUC, Cmax) and pharmacodynamic responses. Doses may be adjusted based on the occurrence of adverse events. Subjects will be followed on site for 72 hours after dose administration.

Setting [8] is: male, Beagle, in vivo, po, Capsule, 5.6 mg/kg.
[9] abbreviates: male, Beagle, in vivo, po, EC-Capsule (L100-55), 5 mg/kg.
Where [10] appears, read: male, Beagle, in vivo, IV saline, 2 mg/kg.

As a reminder, the IC50 is the concentration that gives 50% inhibition. By AUC is commonly meant concentration integrated over time. Low values mean low exposure, high ones high exposure. In general, Cmax refers to the peak of the concentration-time curve. One may read the Tmax as the time at which the peak concentration occurs.

Counter-ions that a name gives are not always drawn. Like-named read-outs stand apart in the source and are kept apart here. Some results are limits rather than exact numbers.

guinea pig DP2 receptor, sequence (H0W1T0 1-391): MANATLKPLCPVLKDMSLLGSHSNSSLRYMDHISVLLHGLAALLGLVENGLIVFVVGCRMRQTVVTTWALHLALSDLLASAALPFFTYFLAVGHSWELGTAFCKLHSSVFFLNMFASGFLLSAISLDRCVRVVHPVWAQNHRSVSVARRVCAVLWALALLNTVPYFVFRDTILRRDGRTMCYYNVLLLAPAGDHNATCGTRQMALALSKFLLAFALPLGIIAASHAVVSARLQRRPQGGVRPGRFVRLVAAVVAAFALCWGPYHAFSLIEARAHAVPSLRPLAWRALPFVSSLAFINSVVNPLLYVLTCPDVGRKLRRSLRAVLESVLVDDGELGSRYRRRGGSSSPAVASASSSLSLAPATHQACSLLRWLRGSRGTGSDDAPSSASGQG

Consider `COc1ccc(CC(=O)O)cc1Oc1ccc(NC(=O)C(C)(C)C)cc1CSC(C)(C)C` [Compound 1, 2-(3-(2-((tert-butylthio)methyl)-4-(2,2-dimethyl-propionylamino)phenoxy)-4-methoxyphenyl)acetic acid], for which the 50% inhibitory concentration (IC50) is 20.3 nM in series [1] (0.2% guinea pig serum albumin, read-out: IC50, radioligand membrane binding on guinea pig DP2) and 10.6 nM in series [1] (average, without serum albumin, read-out: IC50, inhibition of radiolabeled PGD2 binding to guinea pig DP2). In series [2] (1 hr post-dose), this compound gave a concentration at 1 h of 1360 nM. Besides, the concentration at 2 h in series [2] (2 hr post-dose, read-out: plasma exposure for Compound 1) worked out at 460 nM. Moreover, in series [2] (4 hr post-dose, read-out: plasma exposure for Compound 1), the concentration at 4 h is 210 nM. Also, the concentration at 6 h in series [2] (6 hr post-dose, read-out: plasma exposure for Compound 1) amounted to 90 nM. For the same compound, in series [3], the “induction of CYP3A4” value is recorded as “not a strong inducer”.
As for `COc1ccc(CC(=O)O)cc1Oc1ccc(NC(=O)C(C)(C)C)cc1CSC(C)(C)C` [Compound 2, 2-(3-(2-((tert-butylthio)methyl)-4-(2,2-dimethyl-propionylamino)phenoxy)-4-methoxyphenyl)acetic acid, sodium salt], the “hygroscopicity (GVS observation)” value in series [4] (listed as Amorphous Compound 2, sodium salt) is recorded as “deliquesced”. Also, the GVS mass change in series [4] (at 80% R.H.) is above 30 % w/w. In series [5] (IV saline, 2 mg/kg), this compound had a CO of 10.3 µg/mL and a ClPl of 5.0 mL/min/kg. Further, in series [5] (setting [8]), the AUC came out at 14300 ng·h/mL, the Cmax was found to be 4800 ng/mL, the Tmax was 2.1 h and the bioavailability is 78.6%. The half-life in series [5] (setting [8]) was 2.8 h. Further, in series [5] (setting [9]), the area under the curve (AUC) came out at 20900 ng·h/mL, the peak level (Cmax) was 14400 ng/mL, the Tmax came to 1 h and the bioavailability was determined as 128%. The half-life in series [5] (setting [9]) was 2.4 h. In series [5] (setting [10]), the AUC is 6500 ng·h/mL, the Tmax turned out to be 0.1 h and the half-life is 5.1 h. The Vd in series [5] (male, Beagle, in vivo, IV saline, 2 mg/kg, read-out: VDss) is 0.9 L/kg. Also, in series [6], the BALF lymphocytes entry was “trend toward reducing” and the “decrease of BALF neutrophils compared to the untreated group” value is listed as “approx. 50%”. The tolerability result in series [7] is reported as “well tolerated”.

These data come from patent US9688624B2, “DP2 antagonist and uses thereof” (Brickell Biotech, Inc., priority 2010, dated 2017).
